In patent US20260355163A1, “TREATMENT OF FASCIOLOSIS” (INTERVET INC., priority 2022, published 2026):
Entries after “also recorded” stand apart in the source; their conditions may differ. Where two headings read alike, the source gives them in different places.

Tests used:
[1] = tested on: Fasciola hepatica Newly Excysted Juveniles (NEJs); assay: whole organism screen of Fasciola hepatica NEJs: microscopic scoring of phenotype and motility (viability)
Protocol: The effect of test compounds in a whole organism screen of Fasciola hepatica Newly Excysted Juveniles (NEJs) was investigated along with DMSO (− control), triclabendazole (10 μM, + control) and media) and their anti-flukicidal activity was assessed at both 24 and 72 hours.
(§1) The viability detection of Fasciola hepatica NEJs is based on qualitative microscopic evaluation of motility and phenotype and additionally measuring propidium iodide to make use of the differential uptake of fluorophores (such as propidium iodide) by living organisms.
(§2) NEJs were prepared according to Edwards et al.. Approximately 12 NEJs/compound were cultivated. NEJ/compound co-cultures were placed at 37 °C in a humidified atmosphere containing 5% CO2. NEJ/compound co-cultures were incubated for a total of 72 hrs. At 24h, an assessment of the gross phenotype was made for all NEJ/compound co-cultures and bright field images were captured. At 72 h both phenotype and motility were quantified in comparison to live DMSO controls based on a microscopic scoring method detailed in [1] as well as summarised in Table 1 below.

[2] = tested on: Fasciola hepatica Newly Excysted Juveniles (NEJs); assay: Propidium Iodide (PI) uptake by Fasciola hepatica NEJs in co-culture with compound
Protocol: as §1, §2
Propidium Iodide (PI) was then added to the NEJ/compound co-cultures (to a final concentration of […]) and these co-cultures were imaged under both Bright field and Texas Red settings.

[3] = tested on: common liver fluke (Fasciola hepatica); details: cited from earlier work; for effectiveness against liver fluke stages: mature flukes and immature stages (early immature 1 to 6 weeks old, immature 6 to 9 weeks old)
[4] = 72 h, in comparison to live DMSO controls, triclabendazole + control at 10 μM, concentration of test compounds not given
[5] = overall conclusion from viability, phenotype/motility and PI

| Structure (SMILES) | Score (mean) motility 1 to 5 (highest) [1, 4] | Score (mean) phenotype 1 to 6 (highest) [1, 4] | active against Fasciola hepatica NEJs during the viability assessment ([1]; after 24 hours) | phenotype change and impaired motility significantly different to DMSO ([1]; after 72 hours) | significant activity against juvenile stages of Fasciola hepatica [1, 5] | effectiveness against liver fluke stages [3] | other results |
| --- | --- | --- | --- | --- | --- | --- | --- |
| Cc1cc(C2=NO[C@@](c3cc(Cl)c(Cl)c(Cl)c3)(C(F)(F)F)C2)sc1C(=O)NCC(=O)NCC(F)(F)F (stereo in doubt) [Compound 4, 3-methyl-N-(2-oxo-2-((2,2,2-trifluoroethyl)amino)ethyl)-5-[5-(3,4,5-trichlorophenyl)-5-(trifluoromethyl)-4,5-dihydroisoxazol-3-yl]thiophene-2-carboxamide] | – | – | – | – | – | – | Score (mean) motility 1 to 5 (highest) [1]: 5.0; Score (mean) phenotype 1 to 6 (highest) [1]: 5.7; active against Fasciola hepatica NEJs during the viability assessment [1]: active; phenotype change and impaired motility significantly different to DMSO [1]: both a phenotype change and impaired motility significantly different to DMSO; significant activity against juvenile stages of Fasciola hepatica [1]: significant activity; Propidium Iodide positivity [2]: > 90% |
| CS(=O)(=O)CC(=O)N1CC2(C1)OCc1cc(C3=NO[C@@](c4cc(Cl)c(F)c(Cl)c4)(C(F)(F)F)C3)ccc12 (stereo in doubt) [Compound 5, 1-(5′-(5-(3,5-dichloro-4-fluorophenyl)-5-(trifluoromethyl)-4,5-dihydroisoxazol-3-yl)-3′H-spiro[azetidine-3,1′-isobenzofuran]-1-yl)-2-(methylsulfonyl)ethan-1-one] | 5.0 | 5.7 | active | both a phenotype change and impaired motility significantly different to DMSO | significant activity | – | – |
| Cc1cc(C2=NOC(c3cc(Cl)cc(Cl)c3)(C(F)(F)F)C2)ccc1C(=O)NCC(=O)NCC(F)(F)F (centres unmarked) [Compound 1, 4-[5-(3,5-dichlorophenyl)-5-trifluoromethyl-4,5-dihydroisoxazol-3-yl]-2-methyl-N-[(2,2,2-trifluoro-ethylcarbamoyl)-methyl]-benzamide] | – | – | – | – | – | – | Score (mean) motility 1 to 5 (highest) [1]: 5.0; Score (mean) phenotype 1 to 6 (highest) [1]: 5.5; active against Fasciola hepatica NEJs during the viability assessment [1]: active; phenotype change and impaired motility significantly different to DMSO [1]: both a phenotype change and impaired motility significantly different to DMSO; significant activity against juvenile stages of Fasciola hepatica [1]: significant activity |
| Cc1cc(C2=NO[C@@](c3cc(Cl)cc(Cl)c3)(C(F)(F)F)C2)ccc1C(=O)NCC(=O)NCC(F)(F)F [Compound 2] | – | – | – | – | – | – | Score (mean) motility 1 to 5 (highest) [1]: 5.0; Score (mean) phenotype 1 to 6 (highest) [1]: 5.8; active against Fasciola hepatica NEJs during the viability assessment [1]: active; phenotype change and impaired motility significantly different to DMSO [1]: both a phenotype change and impaired motility significantly different to DMSO; significant activity against juvenile stages of Fasciola hepatica [1]: significant activity; Propidium Iodide positivity [2]: > 90% |
| O=C(CNC(=O)c1ccc(C2=NOC(c3cc(Cl)cc(C(F)(F)F)c3)(C(F)(F)F)C2)c2ccccc12)NCC(F)(F)F (centres unmarked) [Compound 3, 4-[5-[3-chloro-5-(trifluoromethyl)phenyl]-4,5-dihydro-5-(trifluoromethyl)-3-isoxazolyl]-N-[2-oxo-2-[(2,2,2-trifluoroethyl)amino]ethyl]-1-naphthalene-carboxamide] | 5.0 | 5.7 | active | both a phenotype change and impaired motility significantly different to DMSO | significant activity | – | – |
| C#CCNC(=O)CNC(=O)c1sc(C2=NO[C@@](c3cc(Cl)c(Cl)c(Cl)c3)(C(F)(F)F)C2)cc1C [Compound 6] | 5.0 | 5.6 | active | both a phenotype change and impaired motility significantly different to DMSO | significant activity | – | – |
| C#CCNC(=O)CNC(=O)c1sc(C2=NO[C@@](c3cc(Cl)c(Cl)c(Cl)c3)(C(F)(F)F)C2)c2c1CCCC2 [Compound 7] | 4.8 | 5.7 | active | both a phenotype change and impaired motility significantly different to DMSO | significant activity | – | – |
| C#CCNC(=O)CNC(=O)c1sc(C2=NO[C@](c3cc(Cl)c(Cl)c(Cl)c3)(C(F)(F)F)C2)c2c1CCCC2 [Compound 8] | 5.0 | 5.7 | active | both a phenotype change and impaired motility significantly different to DMSO | significant activity | – | – |
| Cc1cc(C2=NSC(c3cc(Cl)cc(Cl)c3)(C(F)(F)F)C2)ccc1C(=O)NCC(=O)NCC(F)(F)F (centres unmarked) [Compound 9] | 5.0 | 5.7 | active | both a phenotype change and impaired motility significantly different to DMSO | significant activity | – | – |
| Cn1nc(C(F)(F)C(F)(F)F)c(C(F)(F)F)c1-n1cc(-c2ccc(Cl)c(C(=O)NC3(C#N)CC3)c2)cn1 [Compound 10, 2-chloro-N-(1-cyanocyclopropyl)-5-[1-[2-methyl-5-(1,1,2,2,2-pentafluoroethyl)-4-(trifluoromethyl)pyrazol-3-yl]pyrazol-4-yl]benzamide] | 4.8 | 3.8 | active | both a phenotype change and impaired motility significantly different to DMSO | – | – | – |
| CSc1nc2cc(Cl)c(Oc3cccc(Cl)c3Cl)cc2[nH]1 [Triclabendazole] | 5.0 | 5.8 | – | – | – | effective against mature stages of the common liver fluke (Fasciola hepatica) as well as all immature stages | effectiveness against early immature liver fluke larvae ([3]; early immature larvae (1 to 6 weeks old)): effective against all early immature liver fluke larvae |
| CCCSc1ccc2nc(NC(=O)OC)[nH]c2c1 [albendazole] | – | – | – | – | – | only effective against the mature flukes and not against the immature stages; also recorded: effective only against mature flukes | – |
| Nc1cc(C(Cl)=C(Cl)Cl)c(S(N)(=O)=O)cc1S(N)(=O)=O [clorsulon] | – | – | – | – | – | effective only against mature flukes | – |
| Cc1cc(C(C#N)c2ccc(Cl)cc2)c(Cl)cc1NC(=O)c1cc(I)cc(I)c1O (centres unmarked) [closantel] | – | – | – | – | – | only effective against the mature flukes and not against the immature stages | effectiveness against 3-8 weeks old flukes ([3]; 3-8 weeks old flukes): partially effective; effectiveness against mature flukes ([3]; mature flukes): fully effective |
| N#Cc1cc(I)c(O)c([N+](=O)[O-])c1 [nitroxynil] | – | – | – | – | – | only effective against the mature flukes and not against the immature stages; also recorded: effective against fluke from 8 weeks post infection | – |
| O=C(Nc1cc(Cl)cc(Cl)c1O)c1c(O)c(Cl)cc(Cl)c1Cl [oxyclozanide] | – | – | – | – | – | only effective against the mature flukes and not against the immature stages; also recorded: effective only against mature flukes | – |
